Laboratory results from article PMC5746514 (The Korean Journal of Physiology & Pharmacology : …, 2017).

Target: T1, Kv3.1 potassium channel (Kv3.1b) (Rattus norvegicus, UniProt P25122)
T1 sequence (P25122 1-585): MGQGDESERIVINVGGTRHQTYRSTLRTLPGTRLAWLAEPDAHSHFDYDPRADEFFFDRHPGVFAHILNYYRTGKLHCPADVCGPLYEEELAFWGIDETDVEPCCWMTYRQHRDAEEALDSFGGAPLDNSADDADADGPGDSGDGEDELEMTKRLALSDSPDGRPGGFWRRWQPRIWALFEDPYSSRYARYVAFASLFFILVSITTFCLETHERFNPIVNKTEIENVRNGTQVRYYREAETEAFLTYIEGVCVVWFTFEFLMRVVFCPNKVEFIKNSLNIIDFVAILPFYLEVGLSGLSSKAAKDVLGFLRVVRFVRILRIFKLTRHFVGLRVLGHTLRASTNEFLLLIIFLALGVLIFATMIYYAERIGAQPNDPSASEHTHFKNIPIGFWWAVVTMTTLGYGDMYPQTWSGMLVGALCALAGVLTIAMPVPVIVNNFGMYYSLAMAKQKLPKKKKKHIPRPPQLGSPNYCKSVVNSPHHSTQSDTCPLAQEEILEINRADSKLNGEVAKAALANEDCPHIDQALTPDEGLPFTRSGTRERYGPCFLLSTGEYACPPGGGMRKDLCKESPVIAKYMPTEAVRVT
Assay: whole-cell patch clamp of transfected CHO cells
Format: cell-based

Fc1ccc([C@@H]2CCNC[C@H]2COc2ccc3c(c2)OCO3)cc1 [paroxetine]
IC50: 9.43 µM
